Results published in patent US20250268982A1, “COMPOSITIONS AND METHODS FOR TREATMENT AND/OR PROPHYLAXIS OF PROTEINOPATHIES” (REGAIN THERAPEUTICS SWEDEN AB, priority 2021, published 2025).

How the values were obtained:
[1] = test system: 5XFAD mice; experiment: Nest building behavioural test in 5XFAD mice; assay type: in vivo, mouse; details: peptide i.v., FIGS. 4A-4C
Procedure: Female wild type and 5xFAD transgenic mice (Jackson laboratories) were used for the mouse behavioural experiment. Mice were individually housed in controlled humidity, temperature and light conditions, and had ad libitum access to food and water. Randomization to treatment groups was carried out by using GraphPad QuickCalcs (GraphPad Software, San Diego, CA, USA), and all data analysis was performed blinded to the experimental groups. […] Every effort was made to minimize the harm and suffering of the animals. The mice were treated with the vehicle or peptide preparations once a week i.v. starting at the age of 1 month until 3 months of age. Behavioral testing: the 5xFAD mice have deficits in nest building test starting at 3 months of age. Briefly, the soft bedding material and plastic shelter tube are moved to the one end of the cage and soft tissue paper (17 cm×17 cm) is placed in the other end of the cage. After 24 hours, a picture of the cage is taken, and the points given according to the set scale. 0 points are given if tissue paper remains untouched, 5 points are given when animal incorporates tissue into nest.

[2] = Thioflavin-T kinetics assay of aggregation propensity; assay type: physicochemical; details: 500 μg/ml peptide in normal saline, 12-24 h; FIGS. 6A, 6B
Procedure: THT method. ThT (Sigma-Aldrich) was prepared at 4 mM in MQ water. 50 μL of 500 μg/ml peptide (in normal saline) were incubated with 250 μL of 2.4 mM ThT solution (in water). ThT fluorescence was measured at 440 nm excitation and 480 nm emission in a black, clear-bottom 96-well plates (Corning, USA) at 10-15 min intervals (from bottom with periodic shaking) over 12-24 h on SpectraMax i3 microplate reader (Molecular Devices, USA). Curves were fitted using GraphPad Prism software.

[3] = test system: ERK1/2 phosphorylation; experiment: ERK1/2 phosphorylation ELISA in SH-SY5Y cells; assay type: cell-based; details: 30 pM peptide, 5 minutes, FIG. 16
Procedure: Phosphorylation of ERK is important for cell proliferation, neurogenesis and synaptic plasticity, and is downstream of calcium influx through the α7 receptor. To obtain the data shown in FIG. 16, SH-SY5Y cells were treated with 30 pM peptide for 5 minutes, then lysed and ERK phosphorylation quantified via a commercial ELISA kit.

[4] = test system: 5XFAD mice; experiment: Plaque load by immunohistochemistry in brains of 5XFAD mice; assay type: in vivo, mouse; details: 5XFAD mice treated for five weeks
Procedure: Female wild type and 5xFAD transgenic mice (Jackson laboratories) were used for the mouse behavioural experiment. Mice were individually housed in controlled humidity, temperature and light conditions, and had ad libitum access to food and water. Randomization to treatment groups was carried out by using GraphPad QuickCalcs (GraphPad Software, San Diego, CA, USA), and all data analysis was performed blinded to the experimental groups. All the animal experiments followed the Council of Europe Legislation and Regulation for Animal Protection and are approved by the National Animal Experiment Board of Finland. Every effort was made to minimize the harm and suffering of the animals. […]
Immunohistochemistry: The brains were post-fixed in 4% paraformaldehyde (PFA, Sigma-Aldrich, St. Louis, MO, USA) for 20 hours, followed by cryoprotection in 30% sucrose for 48 hours. […] For quantification of the immunoreactivities, hippocampal areas were imaged using 4 or 10× magnification on an AX70 microscope (Olympus corporation, Tokyo, Japan) with an adjacent digital camera (Color View 12 or F-View, Soft imaging system, Muenster, Germany) running AnalySis software (Soft Imaging System). Quantification of the immunoreactivities was performed using ImagePro Plus software (Media Cybernetics Inc., Rockville, MD, USA) at a predefined range and presented as relative immunoreactive area. […]

Substance	phenotype restoration / rescue (behaviour) [1]	aggregation propensity (thioflavin-T fluorescence) [2]	downstream ERK1/2 phosphorylation [3]	phenotype restoration / rescue (behaviour) ([1]; listed as RT3)	plaque load in the cortex versus vehicle treated animals ([4]; FIG. 5A)	plaque accumulation in the hippocampi versus vehicle treated animals ([4]; FIG. 5B)
SEQ ID NO:88: Aβ42 analogue having a proline (P) substitution in place of methionine (M) at position 35 (M35P)	phenotype rescue	lower aggregation propensity than the peptide having SEQ ID NO:3	induces downstream ERK1/2 phosphorylation	–	–	–
SEQ ID NO: 192: Aβ42 analogue with pyrrolysine substituted for the naturally occurring methionine at position 35	–	lower aggregation propensity than wild type Aβ42	–	–	–	–
SEQ ID NO:3: Aβ40: Aβ42 with deletion of residues 41 and 42 of the beta-sheet aggregation domain	phenotype restoration	lower aggregation propensity than wild type Aβ42	–	phenotype rescue	reduced plaque load in the cortex	decreased level of plaque accumulation in the hippocampi
SEQ ID NO: 190: Aβ42 analogue with N-methyl methionine substituted for the naturally occurring methionine at position 35	–	lower aggregation propensity than wild type Aβ42	induces downstream ERK1/2 phosphorylation	–	–	–
